Experimental data as given in patent US20240124714A1, “NEAR INFRARED DYES FOR BIOLOGICAL IMAGING AND OPTOELECTRONIC DEVICES” (Mississippi State University, priority 2022, published 2024).

Tests used:
[1] = Absorption spectra (maximum absorption wavelength); assay type: physicochemical
Method: All chemicals and solvents were purchased from commercial suppliers and used without further purification unless other-wise specified. ^1H NMR (500 MHz) and ^13C NMR ([…]) spectra were recorded in deuterated solvents on a Bruker ADVANCE 500 NMR Spectrometer. J values are expressed in Hz and quoted chemical shifts are in ppm downfield from tetramethylsilane (TMS) reference using the residual protonated solvents as an internal standard. The signals have been designated as follows: s (singlet), d (doublet), t (triplet), m (multiplets). All the ^13C NMR are proton decoupled. High resolution mass spectra (HRMS) were determined on Broker-micrOTOF-Q II Mass Spectrometer. Concentrations are given in μM. Absorption spectra were acquired using a Cary 5000 UV-Vis-NIR spectrophotometer in a 1 cm quartz cell.
The IR spectrums of the closed (Compound 3) and opened (XanthCR-880) forms of the dye are very distinct. The IR spectrums were obtained in dichloromethane (DCM) and dimethyl sulfoxide (DMSO) (FIG. 2). The maximum absorption wavelength (λabs) of the closed form (Compound 3) is 372 nm. However, when the dye was trapped in the opened form as the ethyl ester (XanthCR-880), the λabs shifted to 880 nm in DCM and 890 nm in DMSO, both of which are at the edge of the NIR I region and trail into the NIR II region.

[2] = test system: porcine liver esterase; assay: Stability in the presence of esterase (absorbance); assay type: in vitro ADME; details: room temperature, 30 min
Method: (§1) FIGS. 3A-3B show absorption studies depicting the stability of XanthCR-880 (20 μM) to the treatment of glutathione (10 mM) (FIG. 3A) and esterase (5 units) (FIG. 3B).
(§2) The XanthCR-880 dye was evaluated for its compatibility as a PA contrast agent in chloroform (FIG. 3C) and PBS buffer and observed that the strongest intensity (XPA) was at 890 nm and 865 nm, respectively.

[3] = Photobleaching under continuous irradiation; assay type: physicochemical; details: continuous irradiation at λPA for 60 min; 20 μM in CHCl3
From the text: Ideally PA contrast agents are photostable. When PA contrast agent are used in studies, they may be subjected to multiple imaging sessions, and as such are ideally resistant to photobleaching.

[4] = Photoacoustic spectrum (PA contrast agent compatibility); assay type: physicochemical
Method: Photoacoustic A imaging was performed on an iThera Medical MSOT inVision 128 tomographer.
as §2

[5] = Fluorescence (fluorescent quantum yield attempt); assay type: physicochemical; details: attempts to determine the fluorescent quantum yield
From the text: Fluorescence spectra were acquired using a custom-built setup with discrete excitation wavelengths ranging from 226 nm to 1059 nm with a temperature range from 4.2 K to 300 K using a liquid He bath cryostat. Alternatively, a Horiba QuantaMaster 8075-21 spectrofluorometer with xenon lamp excitation and liquid nitrogen cooled indium gallium arsenide solid state detector could be used. […] excitation was chosen to coincide with a Xe emission peak.

[6] = Stability of the dye against glutathione (change in absorption at 880 nm); assay type: in vitro ADME; details: 17 μM dye, 40% DMSO/60% PBS, 10 mM reduced glutathione, after 30 min
Method: as §1
The XanthCR-880 dye was also shown to have excellent stability. The stability of XanthCR-880 dye was tested against glutathione, which is a potential reducing agent in biological media. The XanthCR-880 dye (17 μM) was prepared in 40% DMSO/60% PBS solution with 10 mM reduced glutathione and evaluated the change in the maximum absorption at 880 nm. The 10 mM concentration of reduced glutathione was selected to reflect the highest reported levels found in the body (i.e., liver). There was no change observed in the absorbance of the dye after 30 min.

| SMILES | maximum absorption wavelength (λabs) ([1]; in DCM) | maximum absorption wavelength (λabs) ([1]; in DMSO) | absorption maximum ([1]; solvent not stated) | change in the absorbance [2] | decrease of PA signal (photobleaching) [3] | wavelength of strongest photoacoustic intensity (λPA) ([4]; in PBS buffer) | wavelength of strongest photoacoustic intensity (λPA) ([4]; in chloroform (CHCl3), 20 μM) | fluorescence [5] | change in the absorbance of the dye (maximum absorption at 880 nm) [6] | maximum absorption wavelength (λabs) ([1]; closed form, spectra obtained in DCM and DMSO, solvent of this value not stated) |
| --- | --- | --- | --- | --- | --- | --- | --- | --- | --- | --- |
| CCOC(=O)c1ccccc1C1=c2cc/c(=C3/C=CC(=[N+]4CCCCC4)S3)cc2Oc2cc(-c3ccc(N4CCCCC4)s3)ccc21.[Cl-] [XanthCR-880, 1-{5-[(3E)-9-[2-(Ethoxycarbonyl)phenyl]-6-[5-(piperidin-1-yl)thiophen-2-yl]-3H-xanthen-3-ylidene]-2,5-dihydrothiophen-2-ylidene}-1λ5-piperidin-1-ylium chloride] | 880 nm | 890 nm | 880 nm | no significant change | 45% | 865 nm | 890 nm | sufficient fluorescence for brightness imaging | no change | – |
| O=C1OC2(c3ccc(-c4ccc(N5CCCCC5)s4)cc3Oc3cc(-c4ccc(N5CCCCC5)s4)ccc32)c2ccccc21 [Compound 3] | – | – | – | – | – | – | – | – | – | 372 nm |
